Results: patent publication US20090053807A1 (Novo Nordisk A/S, priority 1998, published 2009)
Entries after “also recorded” stand apart in the source; their conditions may differ. Positions of bridges follow the written chain, without caps; N, C: chain ends. Non-standard residues stand in square brackets, D forms with d. Residues, ends and D or L forms follow the SMILES beside them. Chains are numbered I, II in the order given. No end group written: not given here. *: point of attachment. aminooxyacetyl = NOCC(=O)*; Glyoxylyl = O=CC(=O)*

Experiments:
free fat cells = assay: Adipocyte / free fat cell (FFC) assay, 3H glucose incorporation into lipid; conditions: for FEC: FFC assay potency
[1] = biological target: T1, human insulin receptor (HIR) (Homo sapiens, UniProt P06213); assay: Insulin receptor binding, competition with 125I-labeled insulin (radio-receptor assay); conditions: HIR binding affinity of synthetic peptides
T1 construct: made in house

[2] = tested on: FDC-P2 cells expressing the IL-3 and human IGF-1R receptors; conditions: FDC-P2 cells, Table 15; for ED50 Growth: agonist format
[3] = number of + grades agonist potency

T1 sequence (P06213 28-758 limits assumed): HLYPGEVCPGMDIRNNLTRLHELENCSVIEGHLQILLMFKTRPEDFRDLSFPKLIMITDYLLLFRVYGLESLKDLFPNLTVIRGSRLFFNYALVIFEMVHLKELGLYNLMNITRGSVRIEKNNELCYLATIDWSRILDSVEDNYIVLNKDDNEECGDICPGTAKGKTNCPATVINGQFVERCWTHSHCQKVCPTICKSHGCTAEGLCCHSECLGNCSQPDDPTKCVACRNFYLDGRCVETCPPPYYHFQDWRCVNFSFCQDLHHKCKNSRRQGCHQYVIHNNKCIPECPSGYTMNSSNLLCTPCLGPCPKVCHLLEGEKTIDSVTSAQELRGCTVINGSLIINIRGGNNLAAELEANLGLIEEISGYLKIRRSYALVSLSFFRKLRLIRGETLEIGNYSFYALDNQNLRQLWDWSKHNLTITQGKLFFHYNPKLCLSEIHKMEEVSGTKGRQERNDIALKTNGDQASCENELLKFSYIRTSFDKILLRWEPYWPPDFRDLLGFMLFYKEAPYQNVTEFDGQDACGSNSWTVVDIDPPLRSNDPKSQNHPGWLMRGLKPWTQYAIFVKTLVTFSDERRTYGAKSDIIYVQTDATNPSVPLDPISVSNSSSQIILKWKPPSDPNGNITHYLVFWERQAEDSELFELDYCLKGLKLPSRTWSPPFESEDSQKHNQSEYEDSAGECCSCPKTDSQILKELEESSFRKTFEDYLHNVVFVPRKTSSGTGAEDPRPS
T1 sequence (P06213 763-1382 limits assumed): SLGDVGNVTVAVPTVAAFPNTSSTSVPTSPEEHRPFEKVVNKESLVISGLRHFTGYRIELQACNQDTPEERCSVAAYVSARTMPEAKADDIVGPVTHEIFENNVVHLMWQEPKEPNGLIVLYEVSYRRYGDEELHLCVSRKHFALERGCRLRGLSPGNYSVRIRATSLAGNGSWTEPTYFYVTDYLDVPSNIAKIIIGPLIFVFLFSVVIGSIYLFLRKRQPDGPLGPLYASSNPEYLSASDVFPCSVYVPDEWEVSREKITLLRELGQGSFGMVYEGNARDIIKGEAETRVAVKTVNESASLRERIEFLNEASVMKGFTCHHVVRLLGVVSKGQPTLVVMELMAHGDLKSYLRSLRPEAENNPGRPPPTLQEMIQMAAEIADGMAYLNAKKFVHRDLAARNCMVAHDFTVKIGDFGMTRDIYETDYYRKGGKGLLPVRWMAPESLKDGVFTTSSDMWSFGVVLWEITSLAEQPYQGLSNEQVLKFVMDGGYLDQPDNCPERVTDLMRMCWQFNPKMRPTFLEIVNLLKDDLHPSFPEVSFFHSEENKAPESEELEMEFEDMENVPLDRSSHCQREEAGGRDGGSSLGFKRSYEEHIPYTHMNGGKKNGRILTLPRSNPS

| Molecule | FEC (free fat cells; [3]) | other results |
| --- | --- | --- |
| (ESFYDWFERQLGK)2-23 [Peptide S415] |  | activity in the FFC assay / at IR (free fat cells): highly potent |
| CC[C@@H](C)[C@@H](NC(=O)[C@H](CCC(=O)O)NC(=O)[C@H](CC(=O)O)NC(=O)[C@H](Cc1ccccc1)NC(=O)[C@H](Cc1c[nH]c2ccccc12)NC(=O)[C@H](CCC(=O)O)NC(=O)[C@H](Cc1ccc(O)cc1)NC(=O)[C@H](Cc1ccccc1)NC(=O)[C@H](CCC(=O)O)NC(=O)[C@H](CCCCN)NC(=O)[C@H](CC(N)=O)NC(=O)[C@H](CC(N)=O)NC(=O)[C@@H](N)CCCCN)C(=O)NCC(=O)N[C@H](CCC(N)=O)C(=O)O [Peptide S320] (HELM PEPTIDE1{K.N.N.K.E.F.Y.E.W.F.D.E.[dI].G.[dQ]}$$$$V2.0; N-terminus and C-terminus assumed) |  | Kd [1]: 2800 nM |
| S326 (GIISQSCPESFYDWFAGQVSDPWWCW) [Peptide S326] | − |  |
| WLDQERAWLWCEISGRGCLSGGSGGSGGSGGSGSLDESFYDWFERQLGKK (disulfide 11-18 (inferred)) [D815-RP9 12 aa] |  | ED50 Growth [2]: 10,000 nM; Max Action [2]: 100% |
| CC(C)C[C@H](NC(=O)[C@H](CCC(=O)O)NC(=O)[C@H](C)NC(=O)[C@@H](NC(=O)[C@H](Cc1ccccc1)NC(=O)[C@H](Cc1c[nH]c2ccccc12)NC(=O)[C@H](CC(=O)O)NC(=O)[C@H](Cc1ccc(O)cc1)NC(=O)[C@H](Cc1ccccc1)NC(=O)[C@H](CC(N)=O)NC(=O)[C@H](C)NC(=O)[C@H](CC(N)=O)NC(=O)[C@H](CCCNC(=N)N)NC(=O)[C@H](CCC(N)=O)NC(=O)[C@H](CC(C)C)NC(=O)[C@H](Cc1c[nH]c2ccccc12)NC(=O)[C@H](CC(=O)O)NC(=O)[C@@H](NC(=O)[C@H](CCCNC(=N)N)NC(=O)CNC(=O)[C@@H](N)CNC(=O)CON)C(C)C)C(C)C)C(=O)NCC(N)=O [Peptide S245] | + |  |
| CC[C@@H](C)[C@@H](NC(=O)[C@H](CCC(=O)O)NC(=O)[C@H](CC(=O)O)NC(=O)[C@H](Cc1ccccc1)NC(=O)[C@H](Cc1c[nH]c2ccccc12)NC(=O)[C@H](CC(=O)O)NC(=O)[C@H](Cc1ccc(O)cc1)NC(=O)[C@H](Cc1ccccc1)NC(=O)[C@@H]1C[C@@H](O)CN1C(=O)[C@H](CC(=O)O)NC(=O)[C@H](CCCNC(=N)N)NC(=O)[C@H](Cc1c[nH]c2ccccc12)NC(=O)[C@@H](N)CCC(=O)O)C(=O)N1C[C@H](O)C[C@H]1C(=O)N[C@H](CCC(=O)O)C(N)=O [Peptide S322] (HELM PEPTIDE1{E.W.R.D.[Hyp].F.Y.D.W.F.D.E.[dI].[Hyp].[dE].[am]}$$$$V2.0) | 0 |  |
| SLNFYDALQLLAKK [Peptide S119] |  | Kd [1]: 1800 nM |
| GSLDESFYDWFERQL [Peptide S395] |  | Kd [1]: 81 nM |
| CC(C)[C@H](NC(=O)[C@H](Cc1ccccc1)NC(=O)[C@H](Cc1c[nH]c2ccccc12)NC(=O)[C@H](CC(=O)O)NC(=O)[C@H](Cc1ccc(O)cc1)NC(=O)[C@H](Cc1ccccc1)NC(=O)[C@H](CC(N)=O)NC(=O)[C@H](CCC(=O)O)NC(=O)[C@H](Cc1c[nH]cn1)NC(=O)[C@@H](N)Cc1ccccc1)C(=O)N[C@@H](CCCNC(=N)N)C(=O)N[C@@H](CCC(N)=O)C(=O)N[C@H](C(=O)N[C@@H](CO)C(=O)N[C@@H](CCCCN)C(=O)N[C@@H](CCCCN)C(=O)N[C@@H](CNC(=O)CON)C(N)=O)C(C)C [Peptide S131] | + |  |
| S419 (chain 1 K(aminooxyacetyl)EWLDQEWAWVQCEVYGRGCPSEE; chain 2 K(aminooxyacetyl)EWLDQEWAWVQCEVYGRGCPSEE; disulfide I:13-I:20, II:13-II:20 (inferred); not fully specified (bridges); also: dimer, the two chains joined N-terminus to N-terminus through linker 14 at the side chain of residue 1) [Peptide S419] | 0 |  |
| S453: Site 1-Site 2 heterodimer, C-N linkage (GSLDESFYDWFERQLGKKK[Glyoxylyl][Glyoxylyl]KEWLDQEWAWVQCEVYGRGCPSEE; disulfide 34-41 (inferred); not fully specified (residue 20, bridges); printed as GSLDESFYDWFERQLGKKK-Ald-17-Ald-KEWLDQ EWAWVQCEVYGRGCPSEE; also: Site 1-Site 2 heterodimer, C-N linkage via linker 17) [Peptide S453] |  | activity in the FFC assay / at IR (free fat cells): antagonist activity; also recorded: antagonist properties |
| CC[C@@H](C)[C@@H](NC(=O)[C@H](CCC(=O)O)NC(=O)[C@H](CC(=O)O)NC(=O)[C@H](Cc1ccccc1)NC(=O)[C@H](Cc1c[nH]c2ccccc12)NC(=O)[C@H](CC(=O)O)NC(=O)[C@H](Cc1ccc(O)cc1)NC(=O)[C@H](Cc1ccccc1)NC(=O)[C@H](CCC(=O)O)NC(=O)C(C)(C)NC(=O)[C@H](CC(=O)O)NC(=O)C1(NC(=O)[C@@H](N)CC(=O)O)Cc2ccccc2C1)C(=O)N1CCC[C@H]1C(=O)N[C@H](CCC(N)=O)C(N)=O [Peptide S319] (HELM PEPTIDE1{D.[O=C(C1(N[*:1])Cc2ccccc2C1)[*:2]].D.[Aib].E.F.Y.D.W.F.D.E.[dI].P.[dQ].[am]}$$$$V2.0) | 0 |  |
| CC(C)C[C@@H]1NC(=O)[C@H](CO)NC(=O)[C@H](C)NC(=O)CNC(=O)[C@H](Cc2c[nH]c3ccccc23)NC(=O)[C@H](Cc2ccccc2)NC(=O)[C@H](CC(C)C)NC(=O)[C@H](CCC(=O)O)NC(=O)[C@H](CCC(=O)O)NC(=O)[C@H](CC(C)C)NC(=O)[C@H](C(C)C)NC(=O)[C@@H](NC(=O)[C@H](CC(C)C)NC(=O)[C@H](Cc2c[nH]cn2)NC(=O)[C@@H](N)CCCCN)CSSC[C@@H](C(=O)N[C@@H](CO)C(=O)NCC(=O)N[C@@H](CCCCN)C(=O)N[C@@H](CCCCN)C(N)=O)NC(=O)[C@H](Cc2ccc(O)cc2)NC(=O)CNC(=O)[C@H](Cc2ccccc2)NC1=O [Peptide S331] (HELM PEPTIDE1{K.H.L.C.V.L.E.E.L.F.W.G.A.S.L.F.G.Y.C.S.G.K.K.[am]}$PEPTIDE1,PEPTIDE1,4:R3-19:R3$$$V2.0) | 0 |  |
| CC[C@@H](C)[C@@H](NC(=O)[C@H](CCC(=O)O)NC(=O)[C@H](CC(=O)O)NC(=O)[C@H](Cc1ccccc1)NC(=O)[C@H](Cc1c[nH]c2ccccc12)NC(=O)[C@H](CC(=O)O)NC(=O)[C@H](Cc1ccc(O)cc1)NC(=O)[C@H](Cc1ccccc1)NC(=O)[C@@H]1C[C@@H](O)CN1C(=O)[C@H](CC(=O)O)NC(=O)[C@H](CCCNC(=N)N)NC(=O)[C@@H](CCC(=O)O)NC(=O)[C@@H](N)Cc1ccc(O)cc1)C(=O)NCC(=O)NCC(N)=O [Peptide S321] | 0 |  |
| CC(C)C[C@H](NC(=O)[C@H](CCC(N)=O)NC(=O)[C@H](CCCNC(=N)N)NC(=O)[C@H](CCC(=O)O)NC(=O)[C@H](Cc1ccccc1)NC(=O)[C@H](Cc1c[nH]c2ccccc12)NC(=O)[C@H](CC(=O)O)NC(=O)[C@H](Cc1ccc(O)cc1)NC(=O)[C@H](Cc1ccccc1)NC(=O)[C@H](CO)NC(=O)[C@H](CCC(=O)O)NC(=O)[C@H](CC(=O)O)NC(=O)[C@H](CC(C)C)NC(=O)[C@H](CO)NC(=O)CNC(=O)CNC(=O)[C@H](CO)NC(=O)[C@@H]1CSSC[C@H](NC(=O)[C@H](CC(C)C)NC(=O)[C@@H](N)Cc2c[nH]cn2)C(=O)N[C@@H](C(C)C)C(=O)N[C@@H](CC(C)C)C(=O)N[C@@H](CCC(=O)O)C(=O)N[C@@H](CCC(=O)O)C(=O)N[C@@H](CC(C)C)C(=O)N[C@@H](Cc2ccccc2)C(=O)N[C@@H](Cc2c[nH]c3ccccc23)C(=O)NCC(=O)N[C@@H](C)C(=O)N[C@@H](CO)C(=O)N[C@@H](CC(C)C)C(=O)N[C@@H](Cc2ccccc2)C(=O)NCC(=O)N[C@@H](Cc2ccc(O)cc2)C(=O)N1)C(=O)O [Peptide S521] (HELM PEPTIDE1{H.L.C.V.L.E.E.L.F.W.G.A.S.L.F.G.Y.C.S.G.G.S.L.D.E.S.F.Y.D.W.F.E.R.Q.L}$PEPTIDE1,PEPTIDE1,3:R3-18:R3$$$V2.0; N-terminus and C-terminus assumed; bridges inferred) |  | FEC (free fat cells; number of + grades agonist activity): + |
| CC(C)C[C@@H]1NC(=O)[C@H](CO)NC(=O)[C@H](C)NC(=O)CNC(=O)CNC(=O)[C@H](Cc2ccccc2)NC(=O)[C@H](CC(C)C)NC(=O)[C@H](CCC(=O)O)NC(=O)[C@H](CCC(N)=O)NC(=O)[C@H](CC(C)C)NC(=O)[C@H](Cc2ccccc2)NC(=O)[C@@H](NC(=O)[C@H](CC(C)C)NC(=O)[C@@H]2CCCN2)CSSC[C@@H](C(=O)N[C@@H](CO)C(=O)NCC(=O)O)NC(=O)[C@H](Cc2ccc(O)cc2)NC(=O)CNC(=O)CNC1=O [Peptide S262] (HELM PEPTIDE1{P.L.C.F.L.Q.E.L.F.G.G.A.S.L.G.G.Y.C.S.G}$PEPTIDE1,PEPTIDE1,3:R3-18:R3$$$V2.0; N-terminus and C-terminus assumed; bridges inferred) | 0 |  |
| CC[C@H](C)[C@@H]1NC(=O)[C@H](CCC(=O)O)NC(=O)[C@@H](NC(=O)[C@H](Cc2c[nH]c3ccccc23)NC(=O)[C@@H](NC(=O)[C@H](Cc2c[nH]c3ccccc23)NC(=O)[C@H](C)NC(=O)[C@H](CCCNC(=N)N)NC(=O)[C@H](CCC(=O)O)NC(=O)[C@H](CCC(N)=O)NC(=O)[C@H](CCC(=O)O)NC(=O)[C@H](CC(C)C)NC(=O)[C@@H](N)Cc2c[nH]c3ccccc23)[C@@H](C)CC)CSSC[C@@H](C(=O)N[C@@H](CCCNC(=N)N)C(=O)N[C@@H](C)C(=O)O)NC(=O)CNC(=O)[C@H](CO)NC(=O)CNC(=O)[C@H](CCC(N)=O)NC1=O [Peptide S263] (HELM PEPTIDE1{W.L.E.Q.E.R.A.W.I.W.C.E.I.Q.G.S.G.C.R.A}$PEPTIDE1,PEPTIDE1,11:R3-18:R3$$$V2.0; N-terminus and C-terminus assumed; bridges inferred) | 0 |  |
| WLDQERAWLWCEISGRGCLSGGSGGSGSLDESFYDWFERQLGKK (disulfide 11-18 (inferred)) [D815-RP9 6 aa] |  | ED50 Growth [2]: 50 nM; Max Action [2]: >50% |
